Source: PMC11025159 (Journal of Translational Medicine, 2024)

Tests used:
Mia PaCa-2 = assay: MTT cell viability assay Mia PaCa-2; assay type: cell-based, human; conditions: Homo sapiens, MIA PaCa-2, 48 h
Procedure: (§1) Cell viability was evaluated using an MTT colorimetric assay. Cells were seeded (10^5 cells/mL) in 96-well plates and allowed to grow overnight at 37 ℃ with 5% CO2 in a cell-culture incubator. On the following day, the cells were treated with small molecules at different concentrations (0.2–10 micro-molar) or vehicle (DMSO). Cells were then further incubated for 48 h.

JAK1 = target: T1, JAK1 (Homo sapiens, UniProt P23458); assay: Cell-free kinase assay JAK1; assay type: biochemical
T1 construct: purchased Promega Corporation VA7207
Procedure: (§2) The cell-free kinase assays of small molecules were determined by following the manufacturer-recommended protocols. Different concentrations in triplicate were used to determine the IC50 value of the hit molecules (active molecules). For data analysis, GraphPad Prism V9.5 Software and a sigmoidal dose–response (variable slope) equation were used. Each value represents an average of three replicates per concentration.

GSK-3-β = target: T2, GSK-3-β (Homo sapiens, UniProt P49841); assay: Cell-free kinase assay GSK-3-β; assay type: biochemical
T2 construct: purchased Promega Corporation V1991
Procedure: as §2

DHT-induced AGA mice = assay: Hair regrowth in DHT-induced AGA mice model (topical, 28 days); assay type: in vivo, C57BL/6J mice; conditions: for H&E skin histopathology finding: Days 7, 14, 21, 28; for hair follicle phase (histopathology): skin samples days 7, 14, 21, 28; for entry into the anagen phase: topical once a day in presence of testosterone
Procedure: C57BL/6 J mice (male) were obtained from CSIR-IIIM Animal House at 7 weeks of age. We used a DHT-induced AGA mice model for this study. […] At the end of the experiment, skin samples were collected and preserved in 10% neutral buffered formalin for tissue sectioning and staining using haematoxylin and eosin (H&E). The histopathological examinations were performed under the 10× and 40× objectives of light microscope (Magnus, Mx21i).
Dorsal skin samples from C57BL/6J mice were shaved and collected for histological and molecular analyses on Days 7, 14, 21, and 28. The full-thickness skin tissue was fixed in a 10% neutral buffered formalin solution (Sigma) overnight and subsequently dehydrated for embedding in paraffin. Haematoxylin and eosin (H&E) staining was performed on the skin tissue, and digital photomicrographs were taken from the representative areas using light microscope (Magnus, Mx21i).
The quantification of anagen initiation was assessed by observing changes in the dorsal skin colour of C57BL/6 mice, a phenomenon closely linked to the onset of the anagen phase. Anagen quantification was done by employing threshold analysis on dorsal skin colouration using ImageJ. The darkening of the skin, attributed to melanogenesis, strongly correlates with the progression of anagen. This analysis is visually depicted as a heatmap using GraphPad Prism 9.5 Software.

HCT-116 = assay: MTT cell viability assay HCT-116; assay type: cell-based, human; conditions: Homo sapiens, HCT-116, 48 h
Procedure: as §1

[1] = tested on: athymic nude mice (NU/J Foxn1nu); assay: Hair growth in athymic nude mice (topical, 28 days); assay type: in vivo; conditions: for H&E skin histopathology finding / hair follicle grade: day 28; for early onset of hair: topical
Procedure: The groups are as follows: Group 1-Control (untreated), Group 2-Vehicle control, Group 3-tofacitinib citrate (0.8 mg/Kg), Group 4-tofacitinib citrate (0.08 mg/Kg), Group 5-MJ04 (0.08 mg/Kg), Group 6-MJ04 (0.04 mg/Kg), Group 7-MJ04 (0.016 mg/Kg), Group 8-baricitinib (0.1 mg/Kg), Group 9-baricitinib (0.04 mg/Kg), and Group 10-baricitinib (0.02 mg/Kg). At the end of the experiment, skin samples were collected and preserved in 10% neutral buffered formalin for tissue sectioning and staining using haematoxylin and eosin (H&E). The histopathological examinations were performed under the 10× and 40× objectives of light microscope (Magnus, Mx21i), and hair follicles were graded on a scale of 0 to 4 (++++).
The skin samples collected from athymic nude mice (NU/J Foxn1^nu) were preserved in 10% neutral buffered formalin and processed for tissue sectioning. The skin sections (10 µm) of nude mice were stained using haematoxylin and eosin (H&E) and viewed under 10× and 40× objectives of the light microscope (Magnus, Mx21i). The histopathological examination of the samples was performed, and the hair follicles in the skin sections were graded on a scale of 0 to 4 (++++).

[2] = Acute dermal toxicity (OECD 402) in Wistar rats

T1 sequence (P23458 whole entry): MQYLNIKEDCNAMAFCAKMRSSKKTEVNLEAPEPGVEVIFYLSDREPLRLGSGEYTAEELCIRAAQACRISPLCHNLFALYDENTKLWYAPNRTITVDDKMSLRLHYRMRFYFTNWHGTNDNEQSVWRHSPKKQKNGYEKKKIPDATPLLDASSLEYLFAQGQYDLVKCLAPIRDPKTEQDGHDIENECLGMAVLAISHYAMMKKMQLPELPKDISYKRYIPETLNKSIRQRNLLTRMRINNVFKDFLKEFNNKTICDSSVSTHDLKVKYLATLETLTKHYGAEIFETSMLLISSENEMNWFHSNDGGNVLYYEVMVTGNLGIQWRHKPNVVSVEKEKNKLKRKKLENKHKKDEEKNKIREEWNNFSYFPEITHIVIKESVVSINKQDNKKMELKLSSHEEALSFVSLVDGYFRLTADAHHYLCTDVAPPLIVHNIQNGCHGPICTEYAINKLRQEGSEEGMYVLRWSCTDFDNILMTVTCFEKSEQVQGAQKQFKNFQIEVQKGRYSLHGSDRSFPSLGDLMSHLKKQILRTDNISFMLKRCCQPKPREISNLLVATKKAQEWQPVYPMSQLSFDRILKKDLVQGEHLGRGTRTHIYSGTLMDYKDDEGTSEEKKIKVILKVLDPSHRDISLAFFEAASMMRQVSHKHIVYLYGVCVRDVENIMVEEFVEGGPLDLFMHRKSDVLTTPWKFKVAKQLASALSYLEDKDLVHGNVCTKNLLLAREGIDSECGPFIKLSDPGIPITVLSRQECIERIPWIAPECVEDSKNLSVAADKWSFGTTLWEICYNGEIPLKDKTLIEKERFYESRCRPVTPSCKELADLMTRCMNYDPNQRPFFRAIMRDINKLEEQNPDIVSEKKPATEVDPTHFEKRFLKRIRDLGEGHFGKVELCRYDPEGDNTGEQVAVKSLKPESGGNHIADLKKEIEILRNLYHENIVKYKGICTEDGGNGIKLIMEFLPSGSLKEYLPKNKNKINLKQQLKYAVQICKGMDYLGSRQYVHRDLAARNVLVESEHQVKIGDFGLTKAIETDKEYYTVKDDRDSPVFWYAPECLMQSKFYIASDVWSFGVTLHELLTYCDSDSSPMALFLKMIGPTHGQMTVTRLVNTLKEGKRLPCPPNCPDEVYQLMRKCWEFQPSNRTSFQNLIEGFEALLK
T2 sequence (P49841 whole entry): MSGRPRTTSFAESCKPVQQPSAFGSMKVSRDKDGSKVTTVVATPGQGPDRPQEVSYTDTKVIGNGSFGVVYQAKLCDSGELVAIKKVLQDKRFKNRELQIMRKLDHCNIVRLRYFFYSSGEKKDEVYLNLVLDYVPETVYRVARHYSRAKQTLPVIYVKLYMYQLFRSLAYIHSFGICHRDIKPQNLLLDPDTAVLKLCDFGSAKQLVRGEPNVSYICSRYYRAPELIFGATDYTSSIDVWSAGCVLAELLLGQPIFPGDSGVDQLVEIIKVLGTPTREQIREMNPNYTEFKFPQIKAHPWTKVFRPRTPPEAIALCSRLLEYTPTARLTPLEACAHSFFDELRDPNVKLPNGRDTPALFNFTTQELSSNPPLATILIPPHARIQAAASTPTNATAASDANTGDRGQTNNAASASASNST

For `Fc1ccc(-c2cnc3[nH]cc(-c4ccnc(NC5CC5)n4)c3c2)cc1` [MJ04], the IC50 (Mia PaCa-2) was 2270 nM, the IC50 (JAK1; 1mM ATP) was > 10000 nM and the “Fold of selectivity vs. JAK3” value (JAK1; JAK1) was 95. The IC50 (JAK1; Km ATP) was 193 nM, the “Fold of selectivity vs. JAK3” value (GSK-3-β; GSK-3-β) was 908 and the IC50 (GSK-3-β; Km ATP) was 1840 nM. The “hair growth compared to controls and tofacitinib-treated mice” value (DHT-induced AGA mice; 0.04 mg/Kg topical) was “significantly higher and homogeneous hair growth”, the “H&E skin histopathology finding” value (DHT-induced AGA mice; 0.04mg/kg) was “Minimal degree of epidermal atrophy” and the “H&E skin histopathology finding” value (DHT-induced AGA mice; 0.08mg/kg) was “Normal epidermis with increased hair follicles”. For the same compound, the “hair follicle phase (histopathology)” value (DHT-induced AGA mice) was “at least in the anagen IIIc-IV phase”, the “entry into the anagen phase” value (DHT-induced AGA mice) was “rapid entry into the anagen phase within seven days of treatment” and the “mice displaying intense skin darkening followed by hair growth” value (DHT-induced AGA mice; within 10 days of treatment) was “around 90%”. The IC50 (HCT-116) was 2600 nM, the “H&E skin histopathology finding” value ([1]; 0.016 mg/kg) was “Mild epidermal thickening with increased hair follicles” and the hair follicle grade ([1]; 0.016 mg/kg) was “+++ (graded on a scale ranging from 0 to 4 (++++))”. The “H&E skin histopathology finding” value ([1]; 0.04 mg/kg) was “Mild epidermal thinning with increased hair follicles in the dermis and hypodermis”, the hair follicle grade ([1]; 0.04 mg/kg) was “++++ (graded on a scale ranging from 0 to 4 (++++))” and the “H&E skin histopathology finding” value ([1]; 0.08 mg/kg) was “Minimal epidermal thickening with moderate hair follicle”. For the same compound, the hair follicle grade ([1]; 0.08 mg/kg) was “++ (graded on a scale ranging from 0 to 4 (++++))”, the “early onset of hair” value [1] was 12 days and the “mortality and clinical signs of toxicity” value ([2]; 2000 mg/kg body weight, single dermal dose, 14 days) was “no mortality and clinical signs of toxicity”. For the same compound, the LD50 at 14 days ([2]; Wistar, rat, in vivo, topical or ocular) was > 2000 mg/kg.
For `CCS(=O)(=O)N1CC(CC#N)(n2cc(-c3ncnc4[nH]ccc34)cn2)C1` [Baricitinib, baricitinib, reference compound], the “H&E skin histopathology finding” value (DHT-induced AGA mice; 0.04mg/kg) was “Minimal degree of epidermal thickening with increased distinct hair follicles”, the “hair follicle phase (histopathology)” value (DHT-induced AGA mice) was “at least in the anagen IIIc-IV phase” and the “entry into the anagen phase” value (DHT-induced AGA mice) was “rapid entry into the anagen phase within seven days of treatment”. The “H&E skin histopathology finding” value ([1]; 0.02 mg/kg) was “Moderate degree of epidermal thickening”, the hair follicle grade ([1]; 0.02 mg/kg) was “++++ (graded on a scale ranging from 0 to 4 (++++))” and the “H&E skin histopathology finding” value ([1]; 0.04 mg/kg) was “Moderate degree of epidermal thickening”. For the same compound, the hair follicle grade ([1]; 0.04 mg/kg) was “++++ (graded on a scale ranging from 0 to 4 (++++))”, the “H&E skin histopathology finding” value ([1]; 0.1 mg/kg) was “Increased and morphologically distinct hair follicles” and the hair follicle grade ([1]; 0.1 mg/kg) was “+++ (graded on a scale ranging from 0 to 4 (++++))”. For the same compound, the “early onset of hair” value [1] was 12 days.
